Results as given in ChEMBL document CHEMBL1201862, “PubChem BioAssay data set” (2004).
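Results reflect a 48-hour exposure of cells in 96-well plates to compound at five concentrations. GI50 marks 50% less growth.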 The source made the active and inactive calls. Cut-off read from the data, not from the text of the source: active = GI50 up to about 1.1 µM and inactive = higher.

Tests used:
Test in all cases: inhibition of tumour cell growth, NCI panel, 48 h
NCI-H23 = system: NCI-H23
NCI-H460 = system: NCI-H460
Hs-578T = system: Hs-578T
MDA-MB-435 = system: MDA-MB-435
DU-145 = system: DU-145
CAKI-1 = system: CAKI-1
U-251 = system: U-251
OVCAR-5 = system: OVCAR-5
SF-295 = system: SF-295
T47D = system: T47D
SR = system: SR
HT-29 = system: HT-29
CCRF-CEM = system: CCRF-CEM
HCC 2998 = system: HCC 2998
SK-MEL-2 = system: SK-MEL-2
MCF7 = system: MCF7
K562 = system: K562
DMS-114 = system: DMS-114
SW-620 = system: SW-620

Measured: GI50

CCOC(=O)NC(=O)c1cn(CCCOC(=O)CCCCCCCCC(=O)OCCCn2cc(C(=O)NC(=O)OCC)c(=O)n(C)c2=O)c(=O)n(C)c1=O
inactive: NCI-H23 > 100 µM | NCI-H460 > 100 µM | Hs-578T > 100 µM | MDA-MB-435 > 100 µM | DU-145 > 100 µM | CAKI-1 > 69 µM | U-251 > 100 µM | OVCAR-5 > 100 µM | SF-295 > 100 µM | T47D > 100 µM | SR > 100 µM | HT-29 > 100 µM | CCRF-CEM > 46.5 µM | HCC 2998 > 100 µM | SK-MEL-2 97.1 µM | MCF7 > 100 µM | K562 > 100 µM | DMS-114 > 100 µM | SW-620 > 92 µM

COc1cc2c(cc1OC)C(Cc1ccc(Oc3cc(CC4c5cc(OC)c(OC)cc5CCN4C)ccc3O)cc1)N(C)CC2 (stereo unspecified)
inactive: NCI-H23 51.2 µM | NCI-H460 27.9 µM | CAKI-1 21.7 µM | U-251 16.9 µM | OVCAR-5 > 100 µM | SF-295 26.4 µM | SR 1.79 µM | HT-29 13.1 µM | CCRF-CEM 12.7 µM | HCC 2998 14.3 µM | SK-MEL-2 16.1 µM | K562 10.2 µM | DMS-114 16.3 µM | SW-620 16.6 µM

CN(C)c1ccc(/C=C2\C=Cc3ccccc32)cc1
inactive: NCI-H23 35.6 µM | NCI-H460 39.4 µM | CAKI-1 78 µM | U-251 55 µM | OVCAR-5 > 100 µM | SF-295 34.3 µM | SR 32.4 µM | HT-29 40.4 µM | CCRF-CEM 43.2 µM | HCC 2998 78 µM | SK-MEL-2 90.6 µM | K562 28.8 µM | DMS-114 22.1 µM | SW-620 38.1 µM

[N-]=[N+]=NC12CC3C4CC5CC3C(C1)C(C5)C4C2
inactive: NCI-H23 > 100 µM | NCI-H460 > 100 µM | CAKI-1 > 100 µM | U-251 > 100 µM | OVCAR-5 > 100 µM | SF-295 > 100 µM | SR > 100 µM | HT-29 > 100 µM | CCRF-CEM > 100 µM | HCC 2998 > 100 µM | SK-MEL-2 > 100 µM | K562 > 100 µM | DMS-114 > 100 µM | SW-620 > 100 µM
